{
  "source": "ChEMBL document CHEMBL6153088",
  "about": "“Discovery of 1,4-Disubstituted Cyclohexene Analogues as Selective GPR119 Agonists for the Treatment of Type 2 Diabetes” (J Med Chem, 2025)",
  "key": {"[1]": {"experiment": "Lipophilicity, logP of compound", "format": "physicochemical", "conditions": "octanol/water"}, "Cytochrome P450 2C9": {"biological_target": "Cytochrome P450 2C9 (Homo sapiens, UniProt P11712)", "sequence (P11712 whole entry)": "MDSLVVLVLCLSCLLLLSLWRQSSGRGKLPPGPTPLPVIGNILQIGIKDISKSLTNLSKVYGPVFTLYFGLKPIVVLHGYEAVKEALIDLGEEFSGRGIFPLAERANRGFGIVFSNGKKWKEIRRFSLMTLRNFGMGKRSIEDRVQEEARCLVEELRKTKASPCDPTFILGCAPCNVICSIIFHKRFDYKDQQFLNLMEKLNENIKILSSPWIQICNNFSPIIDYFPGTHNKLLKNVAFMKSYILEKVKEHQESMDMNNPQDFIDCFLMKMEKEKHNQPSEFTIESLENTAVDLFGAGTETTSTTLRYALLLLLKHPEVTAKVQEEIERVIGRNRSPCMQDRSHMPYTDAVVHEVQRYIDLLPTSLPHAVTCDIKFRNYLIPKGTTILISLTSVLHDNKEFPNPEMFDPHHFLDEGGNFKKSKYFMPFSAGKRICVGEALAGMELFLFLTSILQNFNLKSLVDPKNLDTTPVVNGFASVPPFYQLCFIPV", "experiment": "Inhibition of CYP2C9 in human liver microsomes using diclofenac as substrate incubated for 10 min in presence of NADPH by LC-MS/MS analysis", "format": "ADME, Microsome"}, "[2]": {"experiment": "Microsomal stability in dog liver microsome assessed as compound remaining measured upto 45 min in presence of NADPH by LC-MS analysis", "format": "ADME, Canis lupus familiaris", "conditions": "liver microsomes, read-out: Stability"}, "Cytochrome P450 1A2": {"biological_target": "T1, Cytochrome P450 1A2 (Homo sapiens, UniProt P05177)", "T1 sequence (P05177 whole entry)": "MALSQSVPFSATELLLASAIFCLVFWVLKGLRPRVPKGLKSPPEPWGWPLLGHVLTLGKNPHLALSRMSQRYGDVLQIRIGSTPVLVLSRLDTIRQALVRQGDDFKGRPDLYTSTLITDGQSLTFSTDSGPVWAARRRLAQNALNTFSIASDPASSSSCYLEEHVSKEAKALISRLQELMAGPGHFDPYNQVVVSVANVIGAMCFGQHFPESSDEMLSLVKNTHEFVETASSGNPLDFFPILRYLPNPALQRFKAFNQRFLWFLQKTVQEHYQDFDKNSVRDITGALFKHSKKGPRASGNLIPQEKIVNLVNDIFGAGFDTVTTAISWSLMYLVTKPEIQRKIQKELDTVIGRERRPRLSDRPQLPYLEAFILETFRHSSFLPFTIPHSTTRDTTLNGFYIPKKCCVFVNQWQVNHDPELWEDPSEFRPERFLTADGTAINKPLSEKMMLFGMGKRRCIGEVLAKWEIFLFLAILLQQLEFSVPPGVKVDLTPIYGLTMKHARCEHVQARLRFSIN", "experiment": "Inhibition of CYP1A2 in human liver microsomes using phenacetin as substrate incubated for 10 min in presence of NADPH by LC-MS/MS analysis", "format": "ADME, Microsome"}, "Rattus norvegicus [3]": {"system": "Rattus norvegicus", "experiment": "Antidiabetic activity in high-fat diet induced obese female Sprague-Dawley rat model assessed as hypoglycemic effect at 3 to 30 mg/kg administered once daily for 5 weeks by oral glucose tolerance test", "format": "functional, organism-based", "conditions": "dose 3-30 mg/kg"}, "[4]": {"experiment": "Microsomal stability in rat liver microsome assessed as compound remaining measured upto 45 min in presence of NADPH by LC-MS analysis", "format": "ADME", "conditions": "liver microsomes, read-out: Stability"}, "[5]": {"biological_target": "T2, Glucose-dependent insulinotropic receptor (Homo sapiens, UniProt Q8TDV5)", "T2 sequence (Q8TDV5 whole entry)": "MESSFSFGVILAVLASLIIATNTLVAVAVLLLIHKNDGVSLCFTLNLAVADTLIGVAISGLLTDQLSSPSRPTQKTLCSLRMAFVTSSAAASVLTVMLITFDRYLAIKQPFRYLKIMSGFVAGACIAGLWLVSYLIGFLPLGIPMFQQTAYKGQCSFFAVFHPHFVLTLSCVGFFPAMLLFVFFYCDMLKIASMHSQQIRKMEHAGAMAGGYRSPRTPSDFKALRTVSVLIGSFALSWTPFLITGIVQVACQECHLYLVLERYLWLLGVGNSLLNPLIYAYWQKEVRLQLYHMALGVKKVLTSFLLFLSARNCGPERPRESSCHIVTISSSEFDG", "experiment": "Agonist activity at human GPR119 expressed in CHO cells assessed as cAMP level measured after 90 mins by HTRF based assay", "format": "functional, cell-based"}, "Mus musculus [6]": {"system": "Mus musculus", "experiment": "Anti-diabetic activity in male db/db mouse assessed as reduction in blood glucose level administered twice a day preincubated with compound for 30 min followed by glucose bolus addition and measured upto 120 min by oral glucose tolerance test", "format": "functional, organism-based", "conditions": "dose 30-30 mg/kg, time <= 150.0 min"}, "[7]": {"experiment": "Oral bioavailability in Cynomolgus monkey at 30 mg/kg measured upto 48 hrs by LC-MS/MS analysis", "format": "ADME, organism-based, Macaca fascicularis", "conditions": "in vivo"}, "[8]": {"experiment": "Microsomal stability in human liver microsome assessed as compound remaining measured upto 45 min in presence of NADPH by LC-MS analysis", "format": "ADME", "conditions": "liver microsomes, read-out: Stability"}, "INS1": {"system": "INS1", "experiment": "Induction of insulin secretion in glucose treated INS1 cells at 0.1 to 1 uM measured after 1 hr by ELISA method", "format": "functional, cell-based", "conditions": "Rattus norvegicus, dose 0.1-1 µM"}, "[9]": {"experiment": "Induction of GLP-1 secretion in human NCI-H716 cells assessed as fold change at 10 uM measured after 1 hr by ELISA method", "format": "functional"}, "[10]": {"experiment": "Half-life in Beagle dog at 10 mg/kg, po measured upto 48 hrs by LC-MS/MS analysis", "format": "ADME, organism-based, Canis lupus familiaris", "conditions": "in vivo"}, "Mus musculus [11]": {"system": "Mus musculus", "experiment": "Anti-diabetic activity in male FATZO mouse assessed as reduction in blood glucose level by measuring reduction in AUC […] at 30 mg/kg pre-administered with compound for 30 min followed by glucose bolus addition and measured upto 120 min by oral glucose tolerance test relative to control", "format": "functional", "parameters": "scale not given: the % may be the effect or the level left", "conditions": "time <= 150 min, 2.5 h"}, "Rattus norvegicus [12]": {"system": "Rattus norvegicus", "experiment": "Antidiabetic activity high-fat diet induced female Sprague-Dawley rat model assessed as reduction in body weight at 3 to 30 mg/kg measured after 28 days by oral glucose tolerance test", "format": "functional, organism-based", "conditions": "dose 3-30 mg/kg, time 28.0 day"}, "[13]": {"biological_target": "Voltage-gated inwardly rectifying potassium channel KCNH2 (Homo sapiens, UniProt Q12809)", "sequence (Q12809 whole entry)": "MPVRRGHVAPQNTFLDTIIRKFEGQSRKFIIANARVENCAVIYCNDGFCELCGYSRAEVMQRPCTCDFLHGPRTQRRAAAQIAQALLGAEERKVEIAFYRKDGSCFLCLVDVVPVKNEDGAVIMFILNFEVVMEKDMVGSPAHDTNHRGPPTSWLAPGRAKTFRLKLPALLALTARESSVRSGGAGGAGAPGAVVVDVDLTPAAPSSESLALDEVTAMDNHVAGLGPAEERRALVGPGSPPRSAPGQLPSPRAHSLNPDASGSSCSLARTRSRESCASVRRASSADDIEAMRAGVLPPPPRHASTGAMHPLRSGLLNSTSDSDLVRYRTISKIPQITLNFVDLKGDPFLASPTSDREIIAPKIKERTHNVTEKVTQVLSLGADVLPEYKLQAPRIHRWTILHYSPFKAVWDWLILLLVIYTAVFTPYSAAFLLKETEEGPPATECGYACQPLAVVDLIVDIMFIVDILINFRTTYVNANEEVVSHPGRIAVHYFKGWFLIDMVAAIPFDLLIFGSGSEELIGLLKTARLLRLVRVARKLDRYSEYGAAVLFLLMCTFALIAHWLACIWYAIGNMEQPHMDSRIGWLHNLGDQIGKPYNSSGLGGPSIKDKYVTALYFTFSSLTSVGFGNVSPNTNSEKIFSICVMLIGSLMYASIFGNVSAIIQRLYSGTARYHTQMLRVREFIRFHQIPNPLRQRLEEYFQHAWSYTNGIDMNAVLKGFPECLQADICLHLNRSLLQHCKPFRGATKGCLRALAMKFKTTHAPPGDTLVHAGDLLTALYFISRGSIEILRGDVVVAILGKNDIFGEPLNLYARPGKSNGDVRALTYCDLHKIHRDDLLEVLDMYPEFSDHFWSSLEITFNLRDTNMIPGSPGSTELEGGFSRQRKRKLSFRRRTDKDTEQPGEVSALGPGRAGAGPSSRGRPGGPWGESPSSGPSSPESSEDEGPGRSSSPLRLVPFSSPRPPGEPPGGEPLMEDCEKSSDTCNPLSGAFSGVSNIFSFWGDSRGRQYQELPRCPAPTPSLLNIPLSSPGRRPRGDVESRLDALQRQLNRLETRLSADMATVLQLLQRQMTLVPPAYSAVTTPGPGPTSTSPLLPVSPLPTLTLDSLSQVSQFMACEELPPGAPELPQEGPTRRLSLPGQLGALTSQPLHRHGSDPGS", "experiment": "Inhibition of human ERG incubated for 150 min by fluorescence polarization based microplate reader analysis", "format": "toxicity"}, "[14]": {"experiment": "Half-life in Sprague-Dawley rat at 30 mg/kg, po measured upto 48 hrs by LC-MS/MS analysis", "format": "ADME, organism-based", "conditions": "in vivo"}, "[15]": {"experiment": "Oral bioavailability in Sprague-Dawley rat at 30 mg/kg measured upto 48 hrs by LC-MS/MS analysis", "format": "ADME, organism-based", "conditions": "in vivo"}, "[16]": {"experiment": "Kinetic solubility of the compound in water", "format": "physicochemical", "conditions": "read-out: Kinetic_solubility"}, "[17]": {"experiment": "Induction of GLP-1 secretion in human NCI-H716 cells assessed as fold change at 30 uM measured after 1 hr by ELISA method", "format": "functional"}, "Cytochrome P450 2D6": {"biological_target": "Cytochrome P450 2D6 (Homo sapiens, UniProt P10635)", "sequence (P10635 whole entry)": "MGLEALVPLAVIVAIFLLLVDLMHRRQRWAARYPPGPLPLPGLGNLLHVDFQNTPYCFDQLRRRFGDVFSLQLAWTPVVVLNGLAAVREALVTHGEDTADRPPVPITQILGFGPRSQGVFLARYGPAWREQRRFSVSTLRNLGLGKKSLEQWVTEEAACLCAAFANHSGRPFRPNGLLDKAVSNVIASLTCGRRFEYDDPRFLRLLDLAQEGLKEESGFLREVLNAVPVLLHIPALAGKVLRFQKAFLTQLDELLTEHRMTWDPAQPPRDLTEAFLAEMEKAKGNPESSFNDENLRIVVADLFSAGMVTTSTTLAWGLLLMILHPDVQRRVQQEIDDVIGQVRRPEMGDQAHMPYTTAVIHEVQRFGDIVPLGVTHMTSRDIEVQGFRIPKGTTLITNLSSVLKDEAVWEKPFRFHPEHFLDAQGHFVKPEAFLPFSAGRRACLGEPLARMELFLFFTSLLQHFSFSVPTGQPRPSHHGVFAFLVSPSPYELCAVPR", "experiment": "Inhibition of CYP2D6 in human liver microsomes using dextromethorphan as substrate incubated for 20 min in presence of NADPH by LC-MS/MS analysis", "format": "ADME, Microsome"}, "[18]": {"experiment": "Half-life in Cynomolgus monkey at 30 mg/kg, po measured upto 48 hrs by LC-MS/MS analysis", "format": "ADME, organism-based, Macaca fascicularis", "conditions": "in vivo"}, "Rattus norvegicus [19]": {"system": "Rattus norvegicus", "experiment": "Antidiabetic activity high-fat diet induced obese female Sprague-Dawley rat model assessed as reduction in fasting glucose levels at 3 to 30 mg/kg measured after 37 days by oral glucose tolerance test", "format": "functional, organism-based", "conditions": "dose 3-30 mg/kg, time 37.0 day"}, "[20]": {"experiment": "Dissociation constant, pKa of compound", "format": "physicochemical"}, "Cytochrome P450 2C19": {"biological_target": "Cytochrome P450 2C19 (Homo sapiens, UniProt P33261)", "sequence (P33261 whole entry)": "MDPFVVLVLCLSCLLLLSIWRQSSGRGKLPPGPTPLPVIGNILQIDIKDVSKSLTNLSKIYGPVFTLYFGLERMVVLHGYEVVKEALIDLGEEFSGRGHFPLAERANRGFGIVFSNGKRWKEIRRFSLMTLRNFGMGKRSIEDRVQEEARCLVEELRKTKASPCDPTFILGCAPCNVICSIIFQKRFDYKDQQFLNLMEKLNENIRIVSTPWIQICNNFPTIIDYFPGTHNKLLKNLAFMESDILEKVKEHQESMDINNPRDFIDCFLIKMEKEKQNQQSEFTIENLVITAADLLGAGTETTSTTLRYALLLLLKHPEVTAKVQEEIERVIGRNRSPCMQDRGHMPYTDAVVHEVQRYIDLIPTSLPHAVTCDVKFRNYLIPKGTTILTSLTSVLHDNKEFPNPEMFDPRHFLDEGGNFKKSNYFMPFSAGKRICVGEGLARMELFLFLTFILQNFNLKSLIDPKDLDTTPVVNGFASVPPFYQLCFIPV", "experiment": "Inhibition of CYP2C19 in human liver microsomes using mephenytoin as substrate incubated for 45 min in presence of NADPH by LC-MS/MS analysis", "format": "ADME, Microsome"}, "Cytochrome P450 3A4": {"biological_target": "Cytochrome P450 3A4 (Homo sapiens, UniProt P08684)", "sequence (P08684 whole entry)": "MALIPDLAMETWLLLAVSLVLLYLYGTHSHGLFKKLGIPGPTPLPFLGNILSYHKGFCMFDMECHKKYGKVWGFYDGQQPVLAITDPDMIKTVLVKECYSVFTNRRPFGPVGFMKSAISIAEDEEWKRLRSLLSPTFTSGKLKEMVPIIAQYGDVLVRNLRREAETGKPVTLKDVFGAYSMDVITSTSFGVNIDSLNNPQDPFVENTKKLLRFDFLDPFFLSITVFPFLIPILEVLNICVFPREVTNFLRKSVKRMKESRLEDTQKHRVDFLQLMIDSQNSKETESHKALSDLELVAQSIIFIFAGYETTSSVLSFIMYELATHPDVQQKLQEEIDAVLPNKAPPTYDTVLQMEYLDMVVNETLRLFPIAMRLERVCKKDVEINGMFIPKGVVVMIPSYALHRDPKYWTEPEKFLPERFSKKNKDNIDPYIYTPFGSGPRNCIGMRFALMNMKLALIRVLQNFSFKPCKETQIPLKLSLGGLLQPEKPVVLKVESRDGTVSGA", "experiment": "Inhibition of CYP3A4 in human liver microsomes using midazolam as substrate incubated for 5 min in presence of NADPH by LC-MS/MS analysis", "format": "ADME, Microsome"}},
  "note": "Activity calls are given as the source filed them. The rule behind the calls is not given here.",
  "data": [
    {"smiles": "CCc1cnc(N2CCC(COc3ccc(C4=CC[C@H](C(=O)N5CCC[C@@H]5CO)CC4)cc3)CC2)nc1", "values": [
      {"measurement": "logP", "setting": "[1]", "value": 3.45},
      {"measurement": "IC50", "setting": "Cytochrome P450 2C9", "value": "> 10", "unit": "µM"},
      {"measurement": "remaining at 0.75 h", "setting": "[2]", "value": 62.4, "unit": "%"},
      {"measurement": "IC50", "setting": "Cytochrome P450 1A2", "value": "> 10", "unit": "µM"},
      {"measurement": "Activity", "setting": "Rattus norvegicus [3]", "value": "Active; Strong Glucose Tolerant Ability"},
      {"measurement": "remaining at 0.75 h", "setting": "[4]", "value": 48.3, "unit": "%"},
      {"measurement": "EC50", "setting": "[5]", "value": 0.0038, "unit": "µM"},
      {"measurement": "Activity", "setting": "Mus musculus [6]", "value": "Dose-dependent-effect; Superior Compared To Sitagliptin"},
      {"measurement": "bioavailability", "setting": "[7]", "value": 31.6, "unit": "%"},
      {"measurement": "remaining at 0.75 h", "setting": "[8]", "value": 53.8, "unit": "%"},
      {"measurement": "Activity", "setting": "INS1", "value": "Active"},
      {"measurement": "fold change (FC)", "setting": "[9]", "value": 1.7},
      {"measurement": "half-life", "setting": "[10]", "value": 17.2, "unit": "h"},
      {"measurement": "Activity", "setting": "Mus musculus [11]", "value": 22.9, "unit": "%"},
      {"measurement": "Activity", "setting": "Rattus norvegicus [12]", "value": "Active; Significant Reduction In Body Weight"},
      {"measurement": "IC50", "setting": "[13]", "value": "> 100", "unit": "µM"},
      {"measurement": "half-life", "setting": "[14]", "value": 5.4, "unit": "h"},
      {"measurement": "bioavailability", "setting": "[15]", "value": 28.3, "unit": "%"},
      {"measurement": "solubility kinetic", "setting": "[16]", "value": 176, "unit": "µM"},
      {"measurement": "fold change (FC)", "setting": "[17]", "value": 1.8},
      {"measurement": "IC50", "setting": "Cytochrome P450 2D6", "value": "> 10", "unit": "µM"},
      {"measurement": "half-life", "setting": "[18]", "value": 11.7, "unit": "h"},
      {"measurement": "Activity", "setting": "Rattus norvegicus [19]", "value": "Active"},
      {"measurement": "pKa", "setting": "[20]", "value": 2.49},
      {"measurement": "IC50", "setting": "Cytochrome P450 2C19", "value": "> 10", "unit": "µM"},
      {"measurement": "IC50", "setting": "Cytochrome P450 3A4", "value": "> 10", "unit": "µM"}
    ]}
  ]
}
